Here are results for 18 compounds from PubChem BioAssay (NCI).

The structures appear in SMILES notation.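 48-hour exposure; five concentrations; linearly interpolated endpoints. GI50 marks 50% less growth. Definition used: TGI = concentration required for complete inhibition of growth.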

In the first assay the test system is OVCAR-8 ovarian. The assay can be described thus: inhibition of tumour cell growth, NCI panel, 48 h.
Consider `FC(F)(F)c1cccc(Nc2nc(-c3ccccc3)nc3ncccc23)c1`, for which the GI50 was 3.74 µM and the TGI amounted to 18.2 µM.
The compound `C=CCOc1ccc2c(C)cc(=O)oc2c1C` yielded a TGI greater than 100 µM.
Turning to `COC(=O)/C=C1\S/C(=N\NC(=O)c2cc3ccc2/C=C\c2ccc(cc2)/C=C\3)N(c2ccccc2)C1=O`, the GI50 was 3.08 µM and the TGI was greater than 100 µM.
Consider `COc1cc2cc(OC)c3cc4c(cc3c2c(OC)c1OC)OCO4`, for which the TGI is greater than 100 µM.
As for `COc1cc2c(c(OC)c1OC)-c1ccc(NNC(N)=S)c(=O)cc1[C@@H](NC(C)=O)CC2`, the GI50 was 0.863 µM and the TGI is greater than 100 µM.
With `COc1cc2c(c3oc4c(O)cccc4c(=O)c13)CC(C(C)(O)CO)O2` (stereo not given), the TGI was greater than 100 µM.
With `COc1cc2c(cc1OCCCCN1CCN(CC(=O)Nc3ccc(Cl)cc3C(=O)c3ccccc3Cl)CC1)N=CC1CCCN1C2=O` (stereo not given), the GI50 is 0.327 µM and the TGI was 1.09 µM.

The subject of a further assay is 786-0 renal. The assay can be described thus: inhibition of tumour cell growth, NCI panel, 48 h.
In the case of `CCOC1Oc2ccccc2C(=O)/C1=C/Nc1ccc(C(C)=O)cc1` (stereo not given), the GI50 is 6.56 µM and the TGI worked out at 25.4 µM.
In the case of `COC1/C=C/OC2(C)Oc3c(C)c(O)c4c(O)c(c(/C=N/Nc5ccc([N+](=O)[O-])cc5[N+](=O)[O-])c(O)c4c3C2=O)NC(=O)C(C)=C/C=C/C(C)C(O)C(C)C(O)C(C)C(OC(C)=O)C1C` (stereo not given), the GI50 is 1.67 µM and the TGI was found to be 7.02 µM.
Take `O=C(Nc1ccc(F)cc1)Nc1ccc(Cl)c([N+](=O)[O-])c1`: the GI50 is 3.37 µM and the TGI was determined as 13.2 µM.
The like results for `COc1ccc2c(c1)sc1nc(-c3ccccc3)c(-c3cccc4ccccc34)n12` were, in that order, 0.848 µM and greater than 100 µM.
As to `C[N+](C)(C)CC(=O)N/N=C(/CC(=O)CC(C1=C(O)c2ccccc2OC1)c1ccccc1)C(=O)Nc1cccc(Cl)c1` (stereo not given), the TGI is greater than 100 µM.
As to `OCCN(CCO)c1ncnc2c1ncn2Cc1ccc(CCl)cc1`, the GI50 was 20.4 µM and the TGI came out at 37.8 µM.
Take `Cc1ccc(NC(=O)Nc2ccc(-c3cccnc3)cc2N2CCC(CO)CC2)cc1`: the GI50 was 2.58 µM and the TGI was 7.25 µM.
Consider `Cc1cc(-c2nc(C(=O)Nc3cc4oc(N5CCOCC5)nc4nc3N3CC[C@@H](O)C3)co2)ccn1`, for which the GI50 was 68.7 µM and the TGI is greater than 100 µM.
`COc1cnc2c(c1)C(=O)c1c-2n(CCCN2CCOCC2)c(=O)c2cc(F)ccc12`: the GI50 is 0.254 µM and the TGI is 1.2 µM.
The like results for `Nc1nc(-n2c(-c3ccccc3)nc3c(Br)cc(Br)cc3c2=O)nnc1-c1cccc(Cl)c1Cl` were, in that order, 11.2 µM and 60.7 µM.
For the compound `NS(=O)(=O)OC[C@@H]1C[C@@H](n2ccc3c(NC4CCc5ccccc54)ncnc32)C[C@@H]1O` (stereo not given in full), the GI50 was 0.671 µM and the TGI turned out to be 29.7 µM.
The like results for `FC(F)(F)c1cccc(Nc2nc(-c3ccccc3)nc3ncccc23)c1` were, in that order, 2.51 µM and 6.51 µM.
Compound `C=CCOc1ccc2c(C)cc(=O)oc2c1C` yielded a TGI greater than 100 µM.
As to `COC(=O)/C=C1\S/C(=N\NC(=O)c2cc3ccc2/C=C\c2ccc(cc2)/C=C\3)N(c2ccccc2)C1=O`, the GI50 is 2 µM and the TGI was found to be 4.38 µM.
Regarding `COc1cc2cc(OC)c3cc4c(cc3c2c(OC)c1OC)OCO4`, the TGI was greater than 90.4 µM.
As to `COc1cc2c(c(OC)c1OC)-c1ccc(NNC(N)=S)c(=O)cc1[C@@H](NC(C)=O)CC2`, the GI50 was 0.867 µM and the TGI is greater than 100 µM.
In turn, `COc1cc2c(c3oc4c(O)cccc4c(=O)c13)CC(C(C)(O)CO)O2` (stereo not given) showed a TGI greater than 100 µM.
As for `COc1cc2c(cc1OCCCCN1CCN(CC(=O)Nc3ccc(Cl)cc3C(=O)c3ccccc3Cl)CC1)N=CC1CCCN1C2=O` (stereo not given), the GI50 was 0.205 µM and the TGI turned out to be 0.456 µM.

The next assay concerns MALME-3M melanoma. The assay can be described thus: inhibition of tumour cell growth, NCI panel, 48 h.
In the case of `COC1/C=C/OC2(C)Oc3c(C)c(O)c4c(O)c(c(/C=N/Nc5ccc([N+](=O)[O-])cc5[N+](=O)[O-])c(O)c4c3C2=O)NC(=O)C(C)=C/C=C/C(C)C(O)C(C)C(O)C(C)C(OC(C)=O)C1C` (stereo not given), the GI50 was 1.21 µM and the TGI came to 6.13 µM.
Regarding `O=C(Nc1ccc(F)cc1)Nc1ccc(Cl)c([N+](=O)[O-])c1`, the GI50 is 2.37 µM and the TGI is 7.2 µM.
Regarding `COc1ccc2c(c1)sc1nc(-c3ccccc3)c(-c3cccc4ccccc34)n12`, the GI50 was greater than 100 µM and the TGI was greater than 100 µM.
With `OCCN(CCO)c1ncnc2c1ncn2Cc1ccc(CCl)cc1`, the GI50 is 12.8 µM and the TGI was 27.3 µM.
As for `Cc1ccc(NC(=O)Nc2ccc(-c3cccnc3)cc2N2CCC(CO)CC2)cc1`, the GI50 is 3.07 µM and the TGI is greater than 100 µM.
`Cc1cc(-c2nc(C(=O)Nc3cc4oc(N5CCOCC5)nc4nc3N3CC[C@@H](O)C3)co2)ccn1`: the GI50 is 29.1 µM and the TGI is greater than 100 µM.
For `COc1cnc2c(c1)C(=O)c1c-2n(CCCN2CCOCC2)c(=O)c2cc(F)ccc12`, the GI50 was 0.503 µM and the TGI was 3.42 µM.
The corresponding values for `NS(=O)(=O)OC[C@@H]1C[C@@H](n2ccc3c(NC4CCc5ccccc54)ncnc32)C[C@@H]1O` (stereo not given in full) are 21.9 µM and greater than 92.8 µM.
As to `FC(F)(F)c1cccc(Nc2nc(-c3ccccc3)nc3ncccc23)c1`, the GI50 was 5.63 µM and the TGI turned out to be 28.7 µM.
In turn, `C=CCOc1ccc2c(C)cc(=O)oc2c1C` came in with a TGI greater than 100 µM.
In the case of `COC(=O)/C=C1\S/C(=N\NC(=O)c2cc3ccc2/C=C\c2ccc(cc2)/C=C\3)N(c2ccccc2)C1=O`, the GI50 is 3.27 µM and the TGI came to 21.4 µM.
Take `COc1cc2cc(OC)c3cc4c(cc3c2c(OC)c1OC)OCO4`: the TGI was greater than 100 µM.
For `COc1cc2c(c(OC)c1OC)-c1ccc(NNC(N)=S)c(=O)cc1[C@@H](NC(C)=O)CC2`, the GI50 is 2.8 µM and the TGI is greater than 100 µM.
With `COc1cc2c(c3oc4c(O)cccc4c(=O)c13)CC(C(C)(O)CO)O2` (stereo not given), the TGI was greater than 100 µM.
Regarding `COc1cc2c(cc1OCCCCN1CCN(CC(=O)Nc3ccc(Cl)cc3C(=O)c3ccccc3Cl)CC1)N=CC1CCCN1C2=O` (stereo not given), the GI50 was 0.186 µM and the TGI was found to be 0.346 µM.
